# Laboratory results published in ChEMBL document CHEMBL4419173, “Small-molecule inhibitors targeting g-protein-coupled rho guanine nucleotide exchange factors” (2014).
# Calls of active or inactive are those of the source. The rule behind the calls is not given here.
# Tests used:
# Format in all cases: cell-based
# MCF7 [1] = assay: Inhibition of RhoGEF in human MCF7 cells derived mammospheres assessed as inhibition of RhoA-mediated phospho-MLC formation at 2.5 uM in presence of 2.5 uM Rhosin/G04 incubated for 24 hrs by densitometry
# [2] = tested on: Transforming protein RhoA (Homo sapiens), P61586 [Q63L]; assay: Inhibition of constitutively active RhoA Q63L mutant (unknown origin) expressed in mouse NIH/3T3 cells assessed as reduction in 10% calf serum-induced actin stress fiber formation at 50 uM by rhodamine-phalloidin staining based assay
# Chain of Transforming protein RhoA (Homo sapiens), P61586 [Q63L] (P61586 whole entry Q63L): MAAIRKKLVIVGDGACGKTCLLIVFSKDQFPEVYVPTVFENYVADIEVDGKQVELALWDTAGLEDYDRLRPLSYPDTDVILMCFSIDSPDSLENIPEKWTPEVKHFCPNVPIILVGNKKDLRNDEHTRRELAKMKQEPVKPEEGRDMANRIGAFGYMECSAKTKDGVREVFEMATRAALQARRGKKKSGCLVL
# [3] = tested on: Transforming protein RhoA (Homo sapiens), P61586 [Q63L]; assay: Inhibition of constitutively active RhoA Q63L mutant (unknown origin) expressed in mouse NIH/3T3 cells assessed as reduction in 10% calf serum-induced focal adhesion complex formation at 50 uM by anti-vinculin antibody staining based assay
# Mus musculus [4] = species on record: Mus musculus; assay: Inhibition of RhoGEF in mouse NIH/3T3 cells assessed as inhibition of 10% calf serum-induced RhoA-GTP formation by measuring reduction in RhoA-GTP level at 5 uM in presence of 5 uM Rhosin/G04 incubated for 24 hrs by densitometry relative to control
# Mus musculus [5] = species on record: Mus musculus; assay: Inhibition of RhoGEF in mouse NIH/3T3 cells assessed as inhibition of 10% calf serum-induced RhoA-GTP formation by measuring relative RhoA-GTP level at 50 uM in presence of 50 uM Rhosin/G04 incubated for 24 hrs by densitometry (reference value: 1)
# MCF7 [6] = assay: Inhibition of RhoGEF in human MCF7 cells derived mammospheres assessed as inhibition of 10% calf serum-induced RhoA-GTP formation at 10 uM incubated for 24 hrs by densitometry relative to control
compound,measurement,setting,value
Cc1cccc(COc2cccc(/C=C3\C(=O)NN(c4ccccc4)C3=O)c2)c1,inhibition,MCF7 [1],70%
same,inhibition,[2],inactive
same,inhibition,[3],inactive
same,inhibition,Mus musculus [4],80%
same,fold change (FC),Mus musculus [5],0
same,inhibition,MCF7 [6],50%
